Assay [1] has as its system Wnt activity, Sp5-Luc reporter in SW480 colon carcinoma cells. Put plainly: Screening assay for Wnt activity (Sp5-Luc reporter gene assay). The assay is classed as cell-based, human.
Description: The screening assay for Wnt activity is described as follows.
Following incubation, 15 μl of BriteLite Plus luminescence reagent (Perkin Elmer) was added to each well of the 384-well assay plates. The plates were placed on an orbital shaker for 2 min and then luminescence was quantified using the Envision (Perkin Elmer) plate reader.
In assay [2] the test system is Tau phosphorylation at Ser396 (pSer396). Put plainly: Tau phosphorylation assay (pSer396) in SH-SY5Y cells. It is filed as cell-based, human. The following applies: overnight (16-18 h) exposure, pSer396 Tau ELISA.
Description: Two days before treatment, cells were seeded onto 96 well plates at 5×10^4 cells/well.
Wells were visually checked for cell death or change in morphology and supernatants were tested for cytotoxicity by measurement of lactate dehydrogenase release (LDH, CytoToxOne kit, Promega) if necessary.
Cells were lysed with RIPA buffer complemented with phosphatase and protease inhibitors then lysates were spun down at 12,000 g for 10 min to remove any cellular debris. Lysates are then either directly tested for pSer396 by ELISA (Life Technology, Kit KHB7031) or loaded on NuPage Bis-Tris gels for western blot analysis. Colorimetric detection of ELISA signal is performed by Cytation3 plate reader (Biotek) and the chemiluminescence signal for HRP-linked antibodies used in western blotting is detected using a Carestream Image Station. The same pSer396 antibody is used for detection of pTau in both assays.
The test system of assay [3] is SW480 colon carcinoma cells. In words: Cell viability assay (CellTiter-Glo). The assay is classed as cell-based, human. The settings on record: four days incubation.
Assay [4] has as its system LL29 cells (αSMA positive cells). Put plainly: Fibrosis assay: TGF-β1 treated primary human fibroblasts from IPF patients, αSMA staining. It is filed as cell-based. The following applies: LL29 cells treated with TGF-β1, 4 days.
For another assay, the system named is IL-6. Put plainly: IL-6 inhibition in LPS-stimulated human peripheral blood mononuclear cells (HTRF). It is filed as cell-based. The settings on record: LPS-stimulated huPBMCs, IL-6 HTRF.

Description for IL-6: After 22 hour incubation, a mixture of anti-IL6 XL665 and anti-IL-6 Cryptate diluted in reconstitution buffer (Catalog #62IL6PEC, Cisbio Inc., Bedford, Mass.) was added to each well. […] All samples were processed in duplicate. […] EC50 was determined using software generated by Dotmatics Limited (Windhill Bishops Stortford Herts, UK) using the Levenberg-Marquardt 4 parameter fitting procedure with finite different gradients.

Turning to `Cn1cc(-c2ccc3cnc(NC(=O)C(C)(C)F)cc3c2)nn1` [Compound 312, 2-Fluoro-2-methyl-N-(6-(1-methyl-1H-1,2,3-triazol-4-yl)isoquinolin-3-yl) propanamide], in assay [1] (given for EC50 of >10 μM), the “percent inhibition at 10 μM” value is listed as 23.8%. The EC50 in assay [1] (incubated 36 to 48 hours) was above 10 µM; in assay [2] it was 0.762 µM; in assay [3], above 10 µM; in assay [4] (αSMA staining) it was above 10 µM; in the assay on IL-6 it was above 10 µM. Besides, the “percent inhibition at 10 μM (given where EC50 >10 μM)” value in assay [4] (10 μM) came to 36.5%; in the assay with IL-6 (10 μM), 3.9%.

(Values after US11673881B2, “Isoquinolin-3-yl carboxamides and preparation and use thereof” (BioSplice Therapeutics, Inc., priority 2016, dated 2023).)
